Measured values reported in patent publication US11364390B2, “Apparatus for treating pathological cells” (priority 2017, dated 2022).

How the values were obtained:
[1] = tested on: neuroblastoma cells CHLA255; experiment: Cell viability assay (live cell count) on cultured neuroblastoma cells CHLA255; assay type: cell-based; conditions: cisplatin 500 nM once a day, combination with electromagnetic field 2 hours a day, FIG. 6
Experimental: Cell Lines and Methods of Culture: Neuroblastoma cells, CHLA255, which are adherent cells, are grown in 37° C. incubator with 10% fetal calf serum in McCoy's medium containing 5% carbon dioxide and saturated water vapor. Cell viability assay: Neuroblastoma cells, CHLA255, were seeded in 6-well plates at a density of 1×10^5 cells/well. […] Statistical Analysis: Each irradiation conditions repeated three times, each three holes, the results were mean±standard error, the results do T test, with P<0.05 as a significant difference in indicators.

[2] = tested on: nephroblastoma cells G401; experiment: Cell viability assay (live cell count) on cultured nephroblastoma cells G401; assay type: cell-based; conditions: cisplatin 500 nM once a day, combination with electromagnetic field 2 hours a day, FIG. 5
Experimental: Cell Lines and Methods of Culture: Nephroblastoma cells G401, adherent cells, were cultured in McCoy's medium with 10% fetal bovine serum at 37° C. in an incubator containing 5% carbon dioxide and saturated water vapor. Cell viability assay: […] cells were seeded into 6-well plates at a density of 1×10^5 cells/well. […] Statistical Analysis: Each irradiation conditions repeated three times, each three holes, the results were mean±standard error, the results do T test, with P<0.05 as a significant difference in indicators.

Nephroblastoma G401 = experiment: Tumor growth inhibition in vivo, G401 nephroblastoma model in nude mice; conditions: cisplatin 20 mg/kg three times a week, irradiation about 90 minutes a day, P<0.05, FIG. 9
Text: Example 7: G401 nephroblastoma model was established in nude mice and the animals were randomly divided into 4 groups with 8 mice in each group. […] Tumor models were established: Male nude mice were infants aged 3-4 weeks old. Nephroblastoma G401 was inoculated into the axilla and the number was 5×10^6/volume. The volume was 200 microliters. After one week of inoculation, the tumor could be touched. The animals were randomized groups, control group, irradiation group, cisplatin group, combined groups, treated separately. […] The control animals were placed in the animals irradiated with electromagnetic field-free coils for 90 minutes every day, and injected intraperitoneally with the same volume of physiology Saline; all animals were sacrificed 3 days after the neck, the eyeball to take whole blood, EDTA anticoagulant, after centrifugation to take the biochemical indicators of blood plasma, remove underarm growth tumor, weighed tumor weight, tissue cryopreservation. Statistical analysis: Each group of 8 animals, the results were mean±standard deviation, the results of T test, P<0.05 as a significant difference in indicators.

N.N.[Cl][Pt][Cl] [cisplatin]
cell inhibition rate [1]: increase | cell proliferation (number of cells) [1]: slow proliferation | cell inhibition rate [2]: increase | cell proliferation (number of cells) [2]: slow proliferation | tumor weight compared with the control group (Nephroblastoma G401): no significant difference
